# Measured values published in ChEMBL document CHEMBL1201862, “PubChem BioAssay data set” (2004).
# Activity calls are given as the source filed them.
# What was measured:
# Exodeoxyribonuclease V = molecular target: T1, Exodeoxyribonuclease V (Escherichia coli (strain K12), UniProt P04993+P07648+P08394); assay: RecBCD inhibition via phage-restricted bacterial growth – absorbance, V66 E. coli, mutant T4 phage, counter-screen for AddAB inhibitor project, dose response (AID 492957); format: functional, cell-based, Escherichia coli str. K-12 substr. MG1655
# T1 sequence (P04993 whole entry): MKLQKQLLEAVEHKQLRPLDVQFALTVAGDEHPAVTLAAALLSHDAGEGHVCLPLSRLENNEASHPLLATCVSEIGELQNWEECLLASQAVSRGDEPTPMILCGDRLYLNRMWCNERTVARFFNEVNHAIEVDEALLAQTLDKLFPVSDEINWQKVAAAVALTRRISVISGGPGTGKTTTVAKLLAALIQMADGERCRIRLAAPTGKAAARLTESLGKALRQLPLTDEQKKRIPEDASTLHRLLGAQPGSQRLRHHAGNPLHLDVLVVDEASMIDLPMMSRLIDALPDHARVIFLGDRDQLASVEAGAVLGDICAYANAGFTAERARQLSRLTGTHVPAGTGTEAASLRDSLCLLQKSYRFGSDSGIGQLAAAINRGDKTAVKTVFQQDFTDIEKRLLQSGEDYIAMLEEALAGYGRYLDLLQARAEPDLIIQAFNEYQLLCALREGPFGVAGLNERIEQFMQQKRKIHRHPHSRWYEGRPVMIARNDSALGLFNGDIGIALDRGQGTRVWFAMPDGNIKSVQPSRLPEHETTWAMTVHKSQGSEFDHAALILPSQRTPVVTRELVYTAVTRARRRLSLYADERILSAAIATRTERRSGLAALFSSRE
# T1 sequence (P07648 whole entry): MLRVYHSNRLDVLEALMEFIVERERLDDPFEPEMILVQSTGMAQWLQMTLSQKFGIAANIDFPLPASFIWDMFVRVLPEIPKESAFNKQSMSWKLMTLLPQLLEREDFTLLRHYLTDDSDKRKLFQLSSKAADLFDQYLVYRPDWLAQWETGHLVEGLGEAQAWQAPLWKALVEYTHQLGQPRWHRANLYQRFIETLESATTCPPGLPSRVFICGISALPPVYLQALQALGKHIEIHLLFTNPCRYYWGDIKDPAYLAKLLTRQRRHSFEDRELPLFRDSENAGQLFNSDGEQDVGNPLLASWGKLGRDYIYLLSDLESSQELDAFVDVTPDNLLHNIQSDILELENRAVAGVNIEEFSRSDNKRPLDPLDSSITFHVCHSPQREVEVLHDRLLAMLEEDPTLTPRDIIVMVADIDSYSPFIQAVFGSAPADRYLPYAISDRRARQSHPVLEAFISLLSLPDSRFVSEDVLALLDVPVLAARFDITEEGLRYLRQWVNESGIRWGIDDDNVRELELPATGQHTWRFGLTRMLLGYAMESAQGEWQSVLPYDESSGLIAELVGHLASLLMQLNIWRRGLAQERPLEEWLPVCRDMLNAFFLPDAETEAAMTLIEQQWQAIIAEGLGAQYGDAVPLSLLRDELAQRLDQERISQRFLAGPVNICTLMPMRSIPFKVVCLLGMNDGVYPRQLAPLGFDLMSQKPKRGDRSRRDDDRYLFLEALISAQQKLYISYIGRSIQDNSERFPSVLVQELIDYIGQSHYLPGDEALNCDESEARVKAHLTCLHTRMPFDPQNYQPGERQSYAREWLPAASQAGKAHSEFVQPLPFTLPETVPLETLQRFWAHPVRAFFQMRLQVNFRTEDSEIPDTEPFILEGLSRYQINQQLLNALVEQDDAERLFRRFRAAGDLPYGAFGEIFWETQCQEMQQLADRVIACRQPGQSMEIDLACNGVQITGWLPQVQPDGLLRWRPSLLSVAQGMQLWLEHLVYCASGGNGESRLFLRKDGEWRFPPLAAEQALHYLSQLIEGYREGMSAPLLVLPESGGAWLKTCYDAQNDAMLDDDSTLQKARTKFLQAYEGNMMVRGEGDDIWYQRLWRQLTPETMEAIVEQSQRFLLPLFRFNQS
# T1 sequence (P08394 whole entry): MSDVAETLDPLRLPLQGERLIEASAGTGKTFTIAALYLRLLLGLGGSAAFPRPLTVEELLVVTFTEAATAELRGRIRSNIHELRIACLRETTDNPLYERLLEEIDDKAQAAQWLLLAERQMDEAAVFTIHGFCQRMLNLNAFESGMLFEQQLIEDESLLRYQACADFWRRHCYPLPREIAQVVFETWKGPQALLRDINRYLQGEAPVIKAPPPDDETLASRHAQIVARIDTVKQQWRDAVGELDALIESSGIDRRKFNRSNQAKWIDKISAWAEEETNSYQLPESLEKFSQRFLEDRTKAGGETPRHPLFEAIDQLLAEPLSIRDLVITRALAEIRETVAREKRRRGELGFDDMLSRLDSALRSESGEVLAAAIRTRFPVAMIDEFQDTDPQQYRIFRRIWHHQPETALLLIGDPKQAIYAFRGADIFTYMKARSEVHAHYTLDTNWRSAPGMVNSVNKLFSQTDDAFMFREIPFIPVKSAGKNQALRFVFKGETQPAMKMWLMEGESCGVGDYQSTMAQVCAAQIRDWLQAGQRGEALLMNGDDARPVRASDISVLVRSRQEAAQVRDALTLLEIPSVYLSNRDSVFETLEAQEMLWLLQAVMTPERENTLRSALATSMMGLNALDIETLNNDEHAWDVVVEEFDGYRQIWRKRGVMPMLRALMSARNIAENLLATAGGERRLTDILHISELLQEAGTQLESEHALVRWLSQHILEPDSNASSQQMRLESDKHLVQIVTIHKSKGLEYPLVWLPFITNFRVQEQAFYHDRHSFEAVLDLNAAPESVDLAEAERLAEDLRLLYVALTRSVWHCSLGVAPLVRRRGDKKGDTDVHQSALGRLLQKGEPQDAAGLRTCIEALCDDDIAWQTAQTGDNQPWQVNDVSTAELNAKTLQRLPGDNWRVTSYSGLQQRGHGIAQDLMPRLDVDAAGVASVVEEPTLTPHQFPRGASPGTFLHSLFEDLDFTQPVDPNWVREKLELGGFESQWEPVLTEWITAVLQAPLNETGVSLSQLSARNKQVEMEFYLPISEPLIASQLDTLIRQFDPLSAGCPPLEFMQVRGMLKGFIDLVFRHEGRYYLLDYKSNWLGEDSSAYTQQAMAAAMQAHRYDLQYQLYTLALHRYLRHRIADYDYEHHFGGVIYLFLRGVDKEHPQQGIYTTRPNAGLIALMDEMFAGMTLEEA
# [1] = Counterscreen for AddAB inhibitors: absorbance-based bacterial cell-based high throughput dose response assay for inhibitors of bacterial viability. [Related pubchem assays (depositor defined):AID435030, AID449728, AID449731, AID488942, AID488955, AID488956]; format: functional
# Prothrombin = Prothrombin (Homo sapiens, UniProt P00734); assay: Thrombin 1536 HTS Dose Response Confirmation. [Related pubchem assays: 1046 (Thrombin 1536 HTS; hits were confirmed in this assay)]; format: functional
# Coagulation factor XII = molecular target: T2, Coagulation factor XII (Homo sapiens, UniProt P00748); format: functional;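 also: activated factor XIIa alpha cleaving a fluorogenic AMC peptide substrate; inhibitor potency from loss of enzyme activity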
# T2 sequence (P00748 whole entry): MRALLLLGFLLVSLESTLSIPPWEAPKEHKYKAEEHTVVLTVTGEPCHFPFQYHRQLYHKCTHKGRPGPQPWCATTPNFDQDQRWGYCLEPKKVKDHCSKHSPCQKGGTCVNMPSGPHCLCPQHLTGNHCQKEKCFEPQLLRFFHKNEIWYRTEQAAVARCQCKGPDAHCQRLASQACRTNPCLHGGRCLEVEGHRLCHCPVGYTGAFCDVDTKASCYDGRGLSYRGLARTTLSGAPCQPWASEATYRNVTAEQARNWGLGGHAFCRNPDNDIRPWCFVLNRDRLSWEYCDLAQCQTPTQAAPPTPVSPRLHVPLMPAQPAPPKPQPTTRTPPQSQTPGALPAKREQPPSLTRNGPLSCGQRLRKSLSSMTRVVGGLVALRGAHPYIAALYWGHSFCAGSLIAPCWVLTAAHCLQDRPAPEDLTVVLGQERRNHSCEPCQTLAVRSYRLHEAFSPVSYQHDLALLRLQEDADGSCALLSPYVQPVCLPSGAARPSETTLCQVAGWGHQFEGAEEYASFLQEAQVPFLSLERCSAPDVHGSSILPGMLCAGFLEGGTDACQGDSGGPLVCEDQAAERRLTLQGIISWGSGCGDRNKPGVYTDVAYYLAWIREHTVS
# Cytochrome P450 3A4 = Cytochrome P450 3A4 (Homo sapiens, UniProt P08684);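 also: CYP3A4 tested as one member of a cytochrome P450 panel screen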
# Sequence of Cytochrome P450 3A4 (P08684 whole entry): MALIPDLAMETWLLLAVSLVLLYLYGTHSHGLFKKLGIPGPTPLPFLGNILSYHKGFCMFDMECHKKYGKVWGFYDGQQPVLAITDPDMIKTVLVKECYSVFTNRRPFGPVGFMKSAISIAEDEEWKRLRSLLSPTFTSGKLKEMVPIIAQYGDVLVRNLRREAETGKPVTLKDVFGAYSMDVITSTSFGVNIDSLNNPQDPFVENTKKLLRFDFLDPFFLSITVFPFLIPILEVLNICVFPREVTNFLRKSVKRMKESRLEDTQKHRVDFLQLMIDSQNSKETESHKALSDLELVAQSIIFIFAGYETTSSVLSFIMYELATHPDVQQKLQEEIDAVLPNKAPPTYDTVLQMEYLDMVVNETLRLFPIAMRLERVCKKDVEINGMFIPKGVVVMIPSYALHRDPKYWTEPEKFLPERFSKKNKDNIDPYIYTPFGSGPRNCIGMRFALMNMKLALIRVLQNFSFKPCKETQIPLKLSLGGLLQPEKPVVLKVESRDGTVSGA
# [2] = molecular target: T3, High affinity choline transporter 1 (Homo sapiens, UniProt Q9GZV3); assay: human choline transporter blockers, potency – cell-based, 5-point CRC, membrane potential dye, dose response (AID 504840); format: functional
# T3 sequence (Q9GZV3 whole entry): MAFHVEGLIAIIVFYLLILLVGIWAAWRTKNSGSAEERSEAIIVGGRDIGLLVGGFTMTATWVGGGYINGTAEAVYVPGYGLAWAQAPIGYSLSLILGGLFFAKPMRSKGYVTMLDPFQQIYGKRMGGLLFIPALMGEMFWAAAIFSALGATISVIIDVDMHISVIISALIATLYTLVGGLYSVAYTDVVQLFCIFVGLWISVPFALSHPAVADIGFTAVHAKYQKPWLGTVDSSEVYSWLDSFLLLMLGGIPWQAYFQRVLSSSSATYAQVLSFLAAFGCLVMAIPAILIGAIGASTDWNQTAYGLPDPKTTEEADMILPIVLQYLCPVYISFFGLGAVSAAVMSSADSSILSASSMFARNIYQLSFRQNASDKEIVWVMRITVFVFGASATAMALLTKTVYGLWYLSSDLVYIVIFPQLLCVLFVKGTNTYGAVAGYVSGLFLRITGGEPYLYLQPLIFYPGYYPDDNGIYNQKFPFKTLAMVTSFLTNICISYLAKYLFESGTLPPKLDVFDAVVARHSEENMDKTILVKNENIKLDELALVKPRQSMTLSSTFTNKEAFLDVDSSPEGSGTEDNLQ
# [3] = A Cell Based Secondary Assay To Explore Cytotoxicity of Compounds that Sensitize Mycobacterium Tuberculosis to Beta-Lactam Antibiotics.; format: functional
# Cytochrome P450 2C9 = Cytochrome P450 2C9 (Homo sapiens, UniProt P11712)
# Sequence of Cytochrome P450 2C9 (P11712 whole entry): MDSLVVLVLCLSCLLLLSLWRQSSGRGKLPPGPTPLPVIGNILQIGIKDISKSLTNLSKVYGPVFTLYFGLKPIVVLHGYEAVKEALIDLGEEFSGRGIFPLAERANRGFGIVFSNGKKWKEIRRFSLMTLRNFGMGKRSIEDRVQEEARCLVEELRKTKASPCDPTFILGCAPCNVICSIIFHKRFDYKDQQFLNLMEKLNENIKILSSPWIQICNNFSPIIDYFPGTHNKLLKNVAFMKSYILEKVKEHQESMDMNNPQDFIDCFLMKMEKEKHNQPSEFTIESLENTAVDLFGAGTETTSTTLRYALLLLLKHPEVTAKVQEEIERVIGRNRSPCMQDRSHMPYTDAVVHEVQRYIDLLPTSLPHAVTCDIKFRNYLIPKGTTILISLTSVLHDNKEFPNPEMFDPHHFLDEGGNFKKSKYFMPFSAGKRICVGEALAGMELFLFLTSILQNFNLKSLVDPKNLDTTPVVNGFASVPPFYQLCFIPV
# [4] = molecular target: Glucose-6-phosphate 1-dehydrogenase (Homo sapiens, UniProt P11413); assay: inhibition of Homo sapiens G6PD, dose series – biochemical, fluorescence, selectivity assay for P. falciparum G6PD inhibitor project, dose response (AID 504792); format: functional
# Sequence of Glucose-6-phosphate 1-dehydrogenase (P11413 whole entry): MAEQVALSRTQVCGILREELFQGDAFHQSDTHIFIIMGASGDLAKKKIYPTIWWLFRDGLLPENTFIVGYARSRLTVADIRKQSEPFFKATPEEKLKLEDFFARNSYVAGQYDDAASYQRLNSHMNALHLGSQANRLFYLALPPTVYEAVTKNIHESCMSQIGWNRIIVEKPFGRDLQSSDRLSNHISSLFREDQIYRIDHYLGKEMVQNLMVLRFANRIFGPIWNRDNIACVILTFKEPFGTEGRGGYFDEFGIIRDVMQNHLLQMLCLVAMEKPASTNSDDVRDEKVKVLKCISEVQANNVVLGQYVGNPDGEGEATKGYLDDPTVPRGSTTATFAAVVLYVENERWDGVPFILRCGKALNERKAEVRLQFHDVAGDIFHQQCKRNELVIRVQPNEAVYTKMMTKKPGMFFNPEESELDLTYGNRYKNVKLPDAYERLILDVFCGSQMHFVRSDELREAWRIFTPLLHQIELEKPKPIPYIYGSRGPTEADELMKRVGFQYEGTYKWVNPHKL
# [5] = molecular target: Kappa-type opioid receptor (Homo sapiens, UniProt P41145); assay: SAR analysis of small molecule agonists of the kappa opioid receptor via a luminescent beta-arrestin assay - Set 3. [Related pubchem assays (depositor defined):AID1777, AID1785, AID1786, AID1966, AID2133, AID2136, AID2284, AID2500]; format: functional
# Sequence of Kappa-type opioid receptor (P41145 whole entry): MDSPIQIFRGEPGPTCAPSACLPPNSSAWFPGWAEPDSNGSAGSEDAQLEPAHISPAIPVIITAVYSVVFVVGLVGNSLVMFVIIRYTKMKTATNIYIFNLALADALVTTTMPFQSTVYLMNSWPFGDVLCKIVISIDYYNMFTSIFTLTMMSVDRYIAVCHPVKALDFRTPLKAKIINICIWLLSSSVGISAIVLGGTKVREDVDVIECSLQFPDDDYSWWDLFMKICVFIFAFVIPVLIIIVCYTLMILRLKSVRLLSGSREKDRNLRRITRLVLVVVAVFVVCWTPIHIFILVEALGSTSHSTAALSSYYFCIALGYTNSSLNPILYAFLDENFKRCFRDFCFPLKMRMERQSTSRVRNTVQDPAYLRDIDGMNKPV
# [6] = molecular target: T4, Dual specificity protein phosphatase 3 (Homo sapiens, UniProt P51452); assay: VHR1 phosphatase inhibitors, primary screen, biochemical, absorbance, uHTS (AID 1654)
# T4 sequence (P51452 whole entry): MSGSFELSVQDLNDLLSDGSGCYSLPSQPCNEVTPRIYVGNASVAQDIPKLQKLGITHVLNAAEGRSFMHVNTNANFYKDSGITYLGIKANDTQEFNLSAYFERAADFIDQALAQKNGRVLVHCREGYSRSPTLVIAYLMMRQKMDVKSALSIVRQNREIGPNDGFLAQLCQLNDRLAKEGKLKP
# [7] = molecular target: T4, Dual specificity protein phosphatase 3; assay: VHR1 phosphatase inhibitors, biochemical (AID 1878)
# [8] = molecular target: T5, Dual specificity protein phosphatase 6 (Rattus norvegicus, UniProt Q64346); assay: inhibition of rat DUSP6 enzyme activity – biochemical, in vitro, primary screen (AID 425)
# T5 sequence (Q64346 whole entry): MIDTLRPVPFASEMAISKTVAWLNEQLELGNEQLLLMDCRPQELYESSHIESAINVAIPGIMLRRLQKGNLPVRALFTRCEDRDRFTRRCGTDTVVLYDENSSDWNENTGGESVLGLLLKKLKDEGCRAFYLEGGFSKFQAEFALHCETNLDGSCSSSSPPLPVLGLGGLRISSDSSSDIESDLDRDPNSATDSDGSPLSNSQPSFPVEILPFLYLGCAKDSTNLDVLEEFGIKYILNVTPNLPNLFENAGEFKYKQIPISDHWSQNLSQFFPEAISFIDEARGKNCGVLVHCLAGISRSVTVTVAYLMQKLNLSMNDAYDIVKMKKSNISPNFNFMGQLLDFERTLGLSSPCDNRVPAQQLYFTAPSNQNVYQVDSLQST
smiles,measurement,setting,value
Cc1cc2c(c(=O)o1)C(c1ccc([N+](=O)[O-])o1)C(C#N)=C(N)O2 (configuration not stated),IC50,Exodeoxyribonuclease V,> 119 µM (inactive)
same,IC50,[1],102 µM (inactive)
Cc1ccc(S(=O)(=O)Nc2cccnc2Oc2ccc(Cl)cc2)cc1,IC50,Prothrombin,> 50 µM (not active)
same,IC50,Coagulation factor XII,> 50 µM (inactive)
Cn1cccc1C(=O)N1CCC2(CC1)CN(c1ccccn1)C2,AC50,Cytochrome P450 3A4,inconclusive
CN1CCN(S(=O)(=O)c2ccc(NC(=O)c3ccc(Br)s3)cc2)CC1,IC50,[2],16.6 µM (active)
same,CC50,[3],> 40 µM (active)
COc1ccc(C(=O)NC2CCCCC2)cc1OC1CCN(C(C)C)CC1,IC50,[2],17.4 µM (active)
COc1cccc(Cn2c(=O)c(-c3ccc(Cl)cc3)nc3cnc(N4CCN(C)CC4)nc32)c1,AC50,Cytochrome P450 3A4,inconclusive
CC(=O)N1CCC2(CC1)CCN(C(c1ccccc1)c1ccccc1)CC2,AC50,Cytochrome P450 3A4,inconclusive
same,AC50,Cytochrome P450 2C9,39.8 µM (inconclusive)
COc1c(O)c(O)c2oc(-c3ccccc3)cc(=O)c2c1OC,IC50,Exodeoxyribonuclease V,> 119 µM (inactive)
same,IC50,[4],> 80 µM (inactive)
same,IC50,[1],> 119 µM (inactive)
Cc1cccc(C)c1OCc1cc(C(=O)N(C)Cc2nc3ccccc3[nH]2)no1,IC50,Exodeoxyribonuclease V,> 119 µM (inactive)
same,IC50,[1],> 119 µM (inactive)
Clc1ccc(CSc2nnc(-c3ccccn3)n2Cc2cccnc2)cc1Cl,EC50,[5],0.756 µM (active)
Clc1ccc(CSc2nnc(-c3ccccn3)n2Cc2ccccc2)cc1Cl,EC50,[5],1.24 µM (active)
CC12CCC(c3c(C(=O)N4CCOCC4)nn(-c4ccccc4)c31)C2(C)C (configuration not stated),IC50,Coagulation factor XII,> 50 µM (inactive)
Oc1c(Br)cc(/C=N/n2c(S)nnc2-c2ccccc2)c(Br)c1O,IC50,[6],< 1.23 µM (inactive)
same,IC50,[7],2.39 µM (active)
same,IC50,[8],90.3 µM (active)
